Reference: patent US20220395553A1, “CXCR4 ANTAGONIST PEPTIDES” (COHBAR, INC., priority 2019, published 2022)
Square brackets hold non-standard residues; d marks the D form. Peptide text beside a SMILES is read from it.

Key:
[1] = test system: Jurkat cells; experiment: CXCL12 mediated cell migration, Jurkat cells; assay type: cell-based, human; conditions: 1.1 μM test article, 100 ng/ml CXCL12, 1 hour
Method: The assay was performed following a protocol similar to that described by Peng, et al., Mol Cancer Ther., 14480-90 (2015), incorporated herein by reference. Peptides were initially prepared as 1 mM stock in H2O and tested at a final concentration of 1.1 μM. […] Jurkat cells were resuspended in serum free media (RPMI+GlutaMax; Gibco/Thermo Fisher Scientific; Gaithersburg, Md.) containing 0.5% bovine serum albumin at density of 5×10^6 cells/ml. […] Cells (250,000 cells in 50 μl) supplemented with the appropriate treatments were seeded on to the upper chamber of a 96-well 5 μm HTS Transwell filter insert (Corning/Costar; Tewksbury, Mass.). […] Filter inserts were immediately placed on top of 96-well receiver trays and placed at 37° C. in a humidified atmosphere of 5% CO2/95% air for 1 hour. Following the 1 hour incubation period the filter inserts were carefully removed and the migration of cells across the filter into the bottom chamber (receiver wells) was determined by measuring ATP levels using Cell TiterGlo 2.0, according to manufacturer's instructions (Promega; Madison, Wis.); luminescence was measured using a Cytation 3 plate reader (BioTek; Winooski, Vt.).

[2] = test system: CXCR4/CXCL12 induced p-MEK; experiment: CXCR4/CXCL12 induced p-MEK in Jurkat cells (ELISA); assay type: cell-based, human; conditions: 5 nM CXCL12, 5 min
Method: The assay was performed following a protocol similar to that described by Peng, et al., Mol Cancer Ther., 14 480-90 (2015), incorporated herein by reference. […] Jurkat cells were resuspended in standard growth media (RPMI+GlutaMax media; Gibco/Thermo Fisher Scientific; Gaithersburg, Md.) containing 10% FBS and 1% penicillin/streptomycin. Assays were performed using fresh or conditioned media (media cultured overnight in presence of Jurkat cells) to resuspend cells at density of 2×10^6 cells/ml and […] of cell suspension was immediately placed in 1.7 ml microfuge tubes. […] Following the 5 min incubation, cells were centrifuged at 1000×g for 4 min at 4° C. The supernatant was removed and the cells were rinsed with 1 ml of HBSS containing calcium and magnesium. The HBSS was removed and the cells were immediately lysed in 150 l of lysis buffer included with Phospho-MEK1 (Ser217/221) Sandwich ELISA kit (Cell Signaling Technology; Danvers, Mass.); lysis buffer was supplemented with 1 m M PMSF (Millipore-Sigma; Saint Louis, Mo.) and Halt protease/phosphatase inhibitor cocktail (Thermo-Fisher; Waltham, Mass.) prior to use. The samples were then placed on ice for 10 min and vortexed periodically. Following the lysis step, the samples were centrifuged at 12,500 rpm for 10 min at 4° C. p-MEK expression in each of the samples was then measure using Phospho-MEK1 (Ser217/221) Sandwich ELISA kit according to manufacturer's instructions. Absorbance was measured using a Cytation 3 plate reader at […] (BioTek; Winooski, Vt.).

[3] = biological target: T1, human CXCR4 (Homo sapiens, UniProt P61073); experiment: CXCR4/CXCL12 binding, HTRF format, single concentration (Example 23); parameters: host or cells: HEK293 (Tag-lite CXCR4 cells, frozen aliquots, transient expression); conditions: 15 nM CXCR4R fluorescent probe, 3 hours, HEK293 Tag-lite CXCR4 cells
Procedure, shortened: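 Tag-lite CXCR4 cells were exposed to peptide at 400 nM final with 15 nM (EC80) fluorescent CXCR4 probe for 3 h at room temperature. HTRF was read, and the 665/620 nm ratio ×10,000 measured probe bound to terbium-labelled receptor.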

[4] = biological target: T1, human CXCR4; experiment: IC50 for inhibition of CXCR4 activation, β-Arrestin recruitment (Example 22); assay type: cell-based; parameters: host or cells: C2C12 (mouse myoblast) CXCR4 β-Arrestin PathHunter cell line
Method: The assay was run with the DiscoverX protocol. β-Arrestin recruitment assays were performed by Eurofins-DiscoverX (Fremont, Calif.) using C2C12 CXCR4 β-Arrestin cell line (co-expressing ProLink tagged human CXCR4 and Enzyme Acceptor tagged β-Arrestin) and PathHunter detection kit. Peptides were initially prepared as 1 mM stock in H2O and tested in ten (10)-step concentration response curves using 3-fold dilution steps with 1 μM as highest concentration; a concentration range of 1 μM-0.05 nM was tested. C2C12 CXCR4 β-Arrestin cells were seed onto 384-well plates in standard medium. […] At the end of the 90 min incubation period, β-Arrestin recruitment in response to various treatments was quantified using a chemiluminescent complementation reporter assay to measure association of tagged human […] (ProLink tag) and tagged β-Arrestin (Enzyme Acceptor tag).

T1 sequence (P61073 whole entry): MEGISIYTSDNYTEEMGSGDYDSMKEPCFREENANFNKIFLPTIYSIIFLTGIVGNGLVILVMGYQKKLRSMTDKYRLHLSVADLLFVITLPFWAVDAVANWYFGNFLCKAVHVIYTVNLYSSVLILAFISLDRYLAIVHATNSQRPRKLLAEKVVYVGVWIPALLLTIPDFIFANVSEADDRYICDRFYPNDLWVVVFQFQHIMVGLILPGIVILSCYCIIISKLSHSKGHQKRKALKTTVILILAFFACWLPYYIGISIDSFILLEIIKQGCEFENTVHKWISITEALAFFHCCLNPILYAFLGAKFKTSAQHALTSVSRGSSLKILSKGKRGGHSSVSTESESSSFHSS

Row | Structure (SMILES) | Percent Inhibition of CXCL12 Mediated Migration (1.1 μM Test Article) [1] [%] | Percent Inhibition of CXCR4/CXCL12 Induced p-MEK (100 nM Test Article) [2] [%] | Percent Inhibition of CXCR4/CXCL12 Induced p-MEK (1 μM Test Article) [2] [%] | Percent Inhibition of CXCR4/CXCL12 Binding (400 nM peptide) [3] [%] | IC50 [4] [nM]
1 | CC(C)C[C@H](NC(=O)[C@H](CO)NC(=O)[C@H](CO)NC(=O)[C@H](CCCNC(=N)N)NC(=O)[C@@H](NC(=O)[C@H](CO)NC(=O)[C@H](Cc1c[nH]cn1)NC(=O)[C@H](Cc1c[nH]cn1)NC(=O)[C@H](Cc1ccc(O)cc1)NC(=O)[C@H](CCCNC(=N)N)NC(=O)[C@H](CCC(=O)O)NC(=O)[C@@H](N)CC(C)C)C(C)C)C(=O)N[C@@H](CCCNC(=N)N)C(=O)N1CCC[C@H]1C(=O)N[C@@H](Cc1ccc(O)cc1)C(=O)N[C@H](C(=O)O)[C@@H](C)O [compound 18] (H-LERYHHSVRSSLRPYT-OH; N-terminus and C-terminus assumed) | 66 | 45 | 78 | 57 | 
2 | CC(C)C[C@H](NC(=O)[C@H](CO)NC(=O)[C@@H](NC(=O)[C@H](CCCNC(=N)N)NC(=O)[C@@H](NC(=O)[C@H](CO)NC(=O)[C@H](Cc1c[nH]cn1)NC(=O)[C@H](Cc1c[nH]cn1)NC(=O)[C@H](Cc1ccc(O)cc1)NC(=O)[C@H](CCCNC(=N)N)NC(=O)[C@H](CCCNC(=N)N)NC(=O)[C@@H](N)CC(C)C)C(C)C)[C@@H](C)O)C(=O)N[C@@H](CCCNC(=N)N)C(=O)N1CCC[C@H]1C(=O)N[C@@H](Cc1ccc(O)cc1)C(=O)N[C@H](C(=O)N[C@@H](CCCCN)C(=O)O)[C@@H](C)O [compound 70] (H-LRRYHHSVRTSLRPYTK-OH; N-terminus and C-terminus assumed) | 21 | 57 | 93 | 11 | 
3 | CC(C)C[C@H](NC(=O)[C@@H](NC(=O)[C@H](CO)NC(=O)[C@H](CCCNC(=N)N)NC(=O)[C@@H](NC(=O)[C@H](CO)NC(=O)[C@H](Cc1c[nH]cn1)NC(=O)[C@H](Cc1c[nH]cn1)NC(=O)[C@H](Cc1ccc(O)cc1)NC(=O)[C@H](CCCNC(=N)N)NC(=O)[C@H](CCCNC(=N)N)NC(=O)[C@@H](N)CC(C)C)C(C)C)[C@@H](C)O)C(=O)N[C@@H](CCCNC(=N)N)C(=O)N1CCC[C@H]1C(=O)N[C@@H](Cc1ccc(O)cc1)C(=O)N[C@H](C(=O)N[C@@H](CCCCN)C(=O)O)[C@@H](C)O [compound 71] (H-LRRYHHSVRSTLRPYTK-OH; N-terminus and C-terminus assumed) |  | 56 | 94 | 29 | 3
4 | CC(C)C[C@H](NC(=O)[C@H](CO)NC(=O)[C@H](CO)NC(=O)[C@H](CCCNC(=N)N)NC(=O)[C@@H](NC(=O)[C@H](CO)NC(=O)[C@H](Cc1c[nH]cn1)NC(=O)[C@H](Cc1c[nH]cn1)NC(=O)[C@H](Cc1ccc(O)cc1)NC(=O)[C@H](CCCNC(=N)N)NC(=O)[C@H](CCCNC(=N)N)NC(=O)[C@@H](N)CC(C)C)C(C)C)C(=O)N[C@@H](CCCNC(=N)N)C(=O)N1CCC[C@H]1C(=O)N[C@@H](Cc1ccc(O)cc1)C(=O)N[C@@H](CO)C(=O)N[C@@H](CCCCN)C(=O)O [compound 72] (H-LRRYHHSVRSSLRPYSK-OH; N-terminus and C-terminus assumed) |  | 8 | 86 | 6 | 5
5 | CC(C)C[C@H](NC(=O)[C@H](CO)NC(=O)[C@@H](NC(=O)[C@H](CCCNC(=N)N)NC(=O)[C@@H](C)NC(=O)[C@H](CO)NC(=O)[C@H](Cc1c[nH]cn1)NC(=O)[C@H](Cc1c[nH]cn1)NC(=O)[C@H](Cc1ccc(O)cc1)NC(=O)[C@H](CCCNC(=N)N)NC(=O)[C@H](CCC(=O)O)NC(=O)[C@@H](N)CC(C)C)[C@@H](C)O)C(=O)N[C@@H](CCCNC(=N)N)C(=O)N1CCC[C@H]1C(=O)N[C@@H](Cc1ccc(O)cc1)C(=O)N[C@H](C(=O)N[C@@H](CCCCN)C(=O)O)[C@@H](C)O [compound 76] (H-LERYHHS[dA]RTSLRPYTK-OH; N-terminus and C-terminus assumed) |  | 5 | 44 | 75 | 6
6 | CC(C)C[C@H](NC(=O)[C@@H](NC(=O)[C@H](CO)NC(=O)[C@H](CCCNC(=N)N)NC(=O)[C@@H](C)NC(=O)[C@H](CO)NC(=O)[C@H](Cc1c[nH]cn1)NC(=O)[C@H](Cc1c[nH]cn1)NC(=O)[C@H](Cc1ccc(O)cc1)NC(=O)[C@H](CCCNC(=N)N)NC(=O)[C@H](CCC(=O)O)NC(=O)[C@@H](N)CC(C)C)[C@@H](C)O)C(=O)N[C@@H](CCCNC(=N)N)C(=O)N1CCC[C@H]1C(=O)N[C@@H](Cc1ccc(O)cc1)C(=O)N[C@H](C(=O)N[C@@H](CCCCN)C(=O)O)[C@@H](C)O [compound 77] (H-LERYHHS[dA]RSTLRPYTK-OH; N-terminus and C-terminus assumed) |  | 7 | 68 | 77 | 4
7 | CC(C)C[C@H](NC(=O)[C@H](CO)NC(=O)[C@H](CO)NC(=O)[C@H](CCCNC(=N)N)NC(=O)[C@@H](C)NC(=O)[C@H](CO)NC(=O)[C@H](Cc1c[nH]cn1)NC(=O)[C@H](Cc1c[nH]cn1)NC(=O)[C@H](Cc1ccc(O)cc1)NC(=O)[C@H](CCCNC(=N)N)NC(=O)[C@H](CCC(=O)O)NC(=O)[C@@H](N)CC(C)C)C(=O)N[C@@H](CCCNC(=N)N)C(=O)NCC(=O)N[C@@H](Cc1ccc(O)cc1)C(=O)N[C@H](C(=O)N[C@@H](CCCCN)C(=O)O)[C@@H](C)O [compound 81] (H-LERYHHS[dA]RSSLRGYTK-OH; N-terminus and C-terminus assumed) |  | −16 | 20 | 81 | 3
